This note sets out measurements from patent publication US20170158702A1, “MULTIVALENT RAS BINDING COMPOUNDS” (KYRAS THERAPEUTICS, INC., priority 2015, published 2017).

Counter-ions that a name gives are not always drawn.

In general, EC50 refers to the concentration giving half of the maximal effect.

For assay [1], the system named is NCI-H460. Briefly: Viability assay with NCI-H460 (CellTiter-Glo cytotoxicity assay, 72 h). The format is cell-based. The note with it: NCI-H460 cell line, 72 h after compounds addition. The method, then:
(§1) NCI-H460 (Epithelial lung tissue; carcinoma; large cell lung cancer) were cultured in RPMI Medium 1640 (Invitrogen-22400105) supplemented with 10% fetal bovine serum (FBS; Invitrogen-10099141). All the cell lines were maintained in a humidified incubator at 37° C. with 5% CO2. Cell culture media and supplements were purchased from Invitrogen, and tissue culture flasks were purchased from Corning, 96-well plates were purchased from Greiner. CellTiter-Glo Luminescent Cell Viability Assay kits were purchased from Promega (Promega-G7573), cells counter Vi-Cell was purchased from Beckman, D300e digital dispenser was purchased from Tecan, detection instrument Envision was purchased from PerkinElmer.
(§2) Paclitaxel was purchased from SELLECK, test compounds, such as any one of the compounds disclosed herein, attained solubility in DMSO and when diluted into culture media. DMSO, solutions containing the test compounds, and culture media were warmed to 37° C. or room temperature for the solution preparation and dilutions.
(§3) NCI-H460 Cell line were seeded in 96-well plates (1200/well) and allowed to adhere to overnight (100 uL/well), for drug treatments with 2 fold dilution, 9 dose points, triplicates or vehicle control, compound stock solutions were prepared in DMSO and use D300e digital dispenser to add compounds to the wells to give the indicated final drug concentrations. Final DMSO concentration was 0.5%. Cellular ATP concentrations were assessed by using the CellTiter-Glo Cell Viability Assay as per the manufacturer's instructions 72 h after compounds addition. Additional cells lines were assayed with any one of the compounds disclosed herein according to the procedures described for the viability assay with NCI-H460.
In general terms: Cellular ATP, detected with luciferase, serves as a proxy for viable cell number.

The subject of assay [2] is MIA PaCa-2. In words: Viability assay with MIA PaCa-2. The format is cell-based. The note with it: MIA PaCa-2, viability assay per Example 57. The method, then: as §1, §2, §3
A viability assay with MIA PaCa-2 (Epithelial pancreas tissue; carcinoma) was performed with compounds listed in Table 15, according to the procedures described in Example 57.

Regarding `COc1cc(CN2CCC3(CC2)CCN(Cc2ccc4c(c2)c(-c2ccc(OC(F)(F)F)cc2)cn4CCCN)C3)cc(OC)c1` [C308; HCl], the EC50 in assay [1] and in assay [2] was no more than 5 µM in each case.

Take `NCCCn1cc(-c2ccc(OC(F)(F)F)cc2)c2cc(CN3CCN(Cc4c(Cl)cccc4Cl)CC3)cnc21` [C177; HCl]: the concentration giving a half-maximal response (EC50) in assay [1] and in assay [2] was no more than 5 µM in each case.

As to `COc1ccc(CN2CCNC(C(=O)NCCCn3cc(-c4ccc(OC(F)(F)F)cc4)c4cc(CN5CCN(Cc6c(Cl)cccc6Cl)CC5)ccc43)C2)cc1OCc1ccc(Cl)c(Cl)c1` (centres unmarked) [C89; Formic acid], the EC50 in assay [1] and in assay [2] was 5 to 10 µM throughout.

For the compound `NC1(C(=O)NCCCn2cc(-c3ccc(OC(F)(F)F)cc3)c3cc(CN4CC5CN(Cc6c(Cl)cccc6Cl)CC5C4)ccc32)CCNCC1` (centres unmarked) [C70; HCl], the EC50 in assay [1] and in assay [2] was no more than 5 µM throughout.

Consider `NCCCc1cn(-c2ccc(OC(F)(F)F)cc2)c2cc(CN3CCN(Cc4c(Cl)cccc4Cl)CC3)ccc12` [C87; Formic acid], for which the EC50 in assay [1] and in assay [2] was no more than 5 µM throughout.

Take `NCCCn1cc(-c2ccccc2CN)c2cc(CN3CCN(Cc4c(Cl)cccc4Cl)CC3)ccc21` [C161; HCl]: the EC50 in assay [1] and in assay [2] was no more than 5 µM each time.

In the case of `NC1(C(=O)NCCCn2cc(-c3ccc(OC(F)(F)F)cc3)c3cc(CNC4C5CN(Cc6c(Cl)cccc6Cl)CC54)ccc32)CCNCC1` (centres unmarked) [C79; Formic acid], the EC50 in assay [1] and in assay [2] was no more than 5 µM throughout.

Consider `NC1(C(=O)NCCCc2cn(-c3ccc(OC(F)(F)F)cc3)c3cc(C(=O)N4CCN(Cc5c(Cl)cccc5Cl)CC4)ccc23)CCNCC1` [C80; HCl], for which the EC50 in assay [1] and in assay [2] was no more than 5 µM each time.

With `NC1(C(=O)NCCCn2cc(-c3ccc(OC(F)(F)F)cc3)c3cc(CN4CCN(Cc5ccccc5Cl)CC4)ccc32)CCNCC1` [C62; HCl], the EC50 in assay [1] and in assay [2] was no more than 5 µM in each case.

Regarding `N#Cc1ccccc1CN1CCN(Cc2ccc3c(c2)c(-c2ccc(OC(F)(F)F)cc2)cn3CCCNC(=O)C2(N)CCNCC2)CC1` [C66; HCl], the concentration giving a half-maximal response (EC50) in assay [1] and in assay [2] was no more than 5 µM each time.

Take `NC1(C(=O)NCCCn2cc(-c3ccc(OC(F)(F)F)cc3)c3cc(CN4CC5(CCN(Cc6c(Cl)cccc6Cl)CC5)C4)ccc32)CCNCC1` [C65; HCl]: the EC50 in assay [1] and in assay [2] was no more than 5 µM each time.

In the case of `NC1(C(=O)NCCCn2cc(-c3ccc(OC(F)(F)F)cc3)c3cc(CN4CC5CCC4CN5Cc4c(Cl)cccc4Cl)ccc32)CCNCC1` (centres unmarked) [C69; HCl], the EC50 in assay [1] and in assay [2] was no more than 5 µM throughout.

Take `NCCCn1cc(-c2ccc(OC(F)(F)F)cc2CN)c2cc(CN3CCN(Cc4ccc5c(c4)OCCO5)CC3)ccc21` [C303; HCl]: the EC50 in assay [1] and in assay [2] was no more than 5 µM in each case.

With `NC1(C(=O)NCCCn2cc(-c3ccc(OC(F)(F)F)cc3)c3cc(CN4CCC5(CC4)CN(Cc4c(Cl)cccc4Cl)C5)ccc32)CCNCC1` [C76; HCl], the EC50 was 5 to 10 µM in assay [1] and no more than 5 µM in assay [2].

Turning to `COc1ccc(CN2CCN(Cc3ccc4c(c3)c(-c3ccc(OC(F)(F)F)cc3CN)cn4CCCN)CC2)c(Cl)c1` [C305; HCl], the EC50 in assay [1] and in assay [2] was no more than 5 µM in each case.

With `O=C(NCCCn1cc(-c2ccc(OC(F)(F)F)cc2)c2cc(CN3CCN(Cc4c(Cl)cccc4Cl)CC3)cnc21)C1CNCCN1` (centres unmarked) [C176; HCl], the EC50 in assay [1] and in assay [2] was no more than 5 µM throughout.

On to `O=C(NCCCn1cc(-c2ccc(OC(F)(F)F)cc2)c2cc(CN3CCN(Cc4c(Cl)cccc4Cl)CC3)ccc21)C1CNCCN1` (centres unmarked) [C90; HCl], for which the EC50 in assay [1] and in assay [2] was no more than 5 µM each time.

Take `NC1(C(=O)NCCCn2cc(-c3ccc(OC(F)(F)F)cc3)c3cc(CN4CCCN(Cc5c(Cl)cccc5Cl)CC4)ccc32)CCNCC1` [C78; HCl]: the concentration giving a half-maximal response (EC50) in assay [1] and in assay [2] was no more than 5 µM throughout.

Turning to `NC1(C(=O)NCCCn2cc(-c3ccc(OC(F)(F)F)cc3)c3cc(CN4CCN(Cc5c(Cl)cccc5Cl)CC4)cnc32)CCNCC1` [C174; HCl], the concentration giving a half-maximal response (EC50) in assay [1] and in assay [2] was no more than 5 µM throughout.

For `O=C(NCCCn1cc(-c2ccc(OC(F)(F)F)cc2)c2cc(CN3CCN(Cc4c(Cl)cccc4Cl)CC3)ccc21)C1(NCc2cccnc2-c2cccc(Cl)c2)CCNCC1` [C114; HCl], the EC50 in assay [1] and in assay [2] was no more than 5 µM each time.

`NC1(C(=O)NCCCn2cc(-c3ccc(OC(F)(F)F)cc3)c3cc(CN4CCN(Cc5c(Cl)cccc5Cl)CC4)ccc32)CCCCC1` [C82; HCl]: the concentration giving a half-maximal response (EC50) in assay [1] and in assay [2] was no more than 5 µM throughout.

Consider `NCCCn1cc(-c2ccc(OC(F)(F)F)cc2CN)c2cc(CN3CCN(Cc4ccc5c(c4)OCO5)CC3)ccc21` [C302; HCl], for which the EC50 in assay [1] and in assay [2] was no more than 5 µM each time.

In the case of `COc1cccc(CN2CCC3(CC2)CCN(Cc2ccc4c(c2)c(-c2ccc(OC(F)(F)F)cc2)cn4CCCN)C3)c1` [C309; HCl], the EC50 in assay [1] and in assay [2] was no more than 5 µM in each case.

`NC1(C(=O)NCCCn2cc(-c3ccc(OC(F)(F)F)cc3)c3cc(CN4CCN(Cc5ccccc5F)CC4)ccc32)CCNCC1` [C60; Formic acid]: the 50% effective concentration (EC50) in assay [1] and in assay [2] was no more than 5 µM in each case.

As to `COc1ccc(Cl)c(CN2CCN(Cc3ccc4c(c3)c(-c3ccc(OC(F)(F)F)cc3CN)cn4CCCN)CC2)c1` [C307; HCl], the EC50 in assay [1] and in assay [2] was no more than 5 µM throughout.

In the case of `NC1(C(=O)NCCCn2cc(-c3ccc(OC(F)(F)F)cc3)c3cc(CN4CCC5(CC4)CCN(Cc4c(Cl)cccc4Cl)CC5)ccc32)CCNCC1` [C67; Formic acid], the half-maximal effective concentration (EC50) in assay [1] and in assay [2] was no more than 5 µM in each case.

On to `NC1(C(=O)NCCCn2cc(-c3ccc(OC(F)(F)F)cc3)c3cc(CN4CC5C(C4)C5NCc4c(Cl)cccc4Cl)ccc32)CCNCC1` (centres unmarked) [C85; HCl], for which the EC50 in assay [1] and in assay [2] was no more than 5 µM each time.

Take `COc1ccccc1CN1CCN(Cc2ccc3c(c2)c(-c2ccc(OC(F)(F)F)cc2)cn3CCCNC(=O)C2(N)CCNCC2)CC1` [C59; Formic acid]: the EC50 in assay [1] and in assay [2] was no more than 5 µM each time.

Turning to `NC1(C(=O)NCCCn2cc(-c3ccc(OC(F)(F)F)cc3)c3cc(CN4CCN(Cc5ccccc5C(F)(F)F)CC4)ccc32)CCNCC1` [C63; HCl], the EC50 in assay [1] and in assay [2] was no more than 5 µM in each case.

With `COc1cccc(CN2CCN(Cc3ccc4c(c3)c(-c3ccc(OC(F)(F)F)cc3CN)cn4CCCN)CC2)c1Cl` [C306; HCl], the EC50 in assay [1] and in assay [2] was no more than 5 µM throughout.

For `NC1(C(=O)NCCCn2cc(-c3ccc(OC(F)(F)F)cc3)c3cc(CN4CCCC5(CCN(Cc6c(Cl)cccc6Cl)CC5)C4)ccc32)CCNCC1` [C68; Formic acid], the EC50 in assay [1] and in assay [2] was no more than 5 µM throughout.

Consider `CN1CCN(Cc2ccc3c(c2)c(-c2ccc(OC(F)(F)F)cc2)cn3CCCNC(=O)C2(N)CCNCC2)CC1` [C57; HCl], for which the concentration for a half-maximal effect (EC50) in assay [1] and in assay [2] was greater than 30 µM throughout.

As for `NC1(C(=O)NCCn2cc(-c3ccc(OC(F)(F)F)cc3)c3cc(CN4CCN(Cc5c(Cl)cccc5Cl)CC4)ccc32)CCNCC1` [C64; HCl], the EC50 in assay [1] and in assay [2] was no more than 5 µM in each case.

For `Cc1ccccc1CN1CCN(Cc2ccc3c(c2)c(-c2ccc(OC(F)(F)F)cc2)cn3CCCNC(=O)C2(N)CCNCC2)CC1` [C71; HCl], the EC50 in assay [1] and in assay [2] was no more than 5 µM in each case.
